Results on 3 molecules are retold here after patent US7037644B1, “Means and methods for monitoring non-nucleoside reverse transcriptase inhibitor antiretroviral therapy and guiding therapeutic decisions in the treatment of HIV/AIDS” (ViroLogic, Inc., priority 1998, dated 2006).

The structures appear in SMILES notation. “Also recorded” adds a separate entry of the source.

Common to all, as to assay: Phenotypic susceptibility assay (site directed mutant RTV)
Assay type in all cases: cell-based, HIV-1

Test [1] relates to K101E-G190S-RTV. The note with it: for change in susceptibility (fold, IC50) vs wild type control RTV: K101E and G190S; for change in susceptibility: mutations at codons 101 and 190 (190S). The text has this:
(§1) The resistance test vectors containing a functional luciferase gene cassette were constructed and host cells were transfected with the resistance test vector DNA. The resistant test vectors contained patient-derived reverse transcriptase and protease sequences that were either susceptible or resistant to the antiretroviral agents, such as nucleoside reverse transcriptase inhibitors, non-nucleoside reverse transcriptase inhibitors and protease inhibitors. The resistance test vector viral particles produced by transfecting the resistance test vector DNA into host cells, either in the presence or absence of protease inhibitors, were used to infect target host cells grown either in the absence of NRTI or NNRTI or in the presence of increasing concentrations of the drug. The amount of luciferase activity produced in infected target host cells in the presence of drug was compared to the amount of luciferase produced in infected target host cells in the absence of drug. Drug resistance was measured as the amount of drug required to inhibit by 50% the luciferase activity detected in the absence of drug (inhibitory concentration 50%, IC50). The IC50 values were determined by plotting percent drug inhibition vs. log10 drug concentration.
(§2) Host cells were seeded in 10-cm-diameter dishes and were transfected several days after plating with resistance test vector plasmid DNA and the envelope expression vector. Transfections were performed using a calcium-phosphate precipitation procedure. The cell culture media containing the DNA precipitate was replaced with fresh medium, from one to 24 hours, after transfection. Cell culture media containing resistance test vector viral particles was harvested one to four days after transfection and was passed through a […] filter before being stored at […]. HIV capsid protein (p24) levels in the harvested cell culture media were determined by an EIA method as described by the manufacturer (SIAC; Frederick, Md.). Before infection, target cells (293 and 293/T) were plated in cell culture media. Control infections were performed using cell culture media from mock transfections (no DNA) or transfections containing the resistance test vector plasmid DNA without the envelope expression plasmid. One to three or more days after infection the media was removed and cell lysis buffer (Promega) was added to each well. Cell lysates were assayed for luciferase activity (FIG. 3). The inhibitory effect of the drug was determined using the following equation: % luciferase inhibition=1−(RLUluc [drug]÷RLUluc)×100 where RLUluc [drug] is the relative light unit of luciferase activity in infected cells in the presence of drug and RLUluc is the Relative Light Unit of luciferase activity in infected cells in the absence of drug. IC50 values were obtained from the sigmoidal curves that were generated from the data by plotting the percent inhibition of luciferase activity vs. the log10 drug concentration. The drug inhibition curves are shown in (FIG. 3).
(§3) The K101E and G190S mutations were introduced alone and in combination into resistance test vectors using the megaprimer method for site-directed mutagenesis (Sakar and Sommar, Ibid.). Resistance test vectors containing the K101E mutation (K101E-RTV), the G190S mutation (G190S-RTV) were then tested using the phenotypic assay described earlier and the results were compared to those determined using a genetically defined resistance test vector that was wild type at positions 101 and 190. We determined the pattern of phenotypic susceptibility to the NNRTIs, delavirdine, nevirapine and efavirenz, in all three vectors.

In test [2] the test system is K101E-RTV. The note with it: K101E alone.
Source text: as §1, §2, §3

The test system of test [3] is P236L-RTV. The note with it: P236L alone vs wild type reference RTV; also statements 'codon 236 alone or in combination'.
Source text: as §1, §2
(§4) Genotypic changes that are observed to correlate with changes in phenotypic patterns of drug susceptibility are evaluated by construction of resistance test vectors containing the specific mutation on a defined, wild-type (drug susceptible) genetic background. Mutations may be incorporated alone and/or in combination with other known drug resistance mutations that are thought to modulate the susceptibility of HIV to a certain drug or class of drugs. Mutations are introduced into the resistance test vector through any of the widely known methods for site-directed mutagenesis. In one embodiment of this invention the mega-primer PCR method for site-directed mutagenesis is used. […]

The test system of test [4] is RTV with P225H plus K103N, Y181C or both. The note with it: P225H with K103N and/or Y181C vs RTV lacking P225H; also statements 'codon 225 alone or in combination with 103'.
Source text: as §1, §2, §4

For test [5], the system named is E138A-Y188L-RTV. Conditions: for loss of susceptibility (fold, IC50) vs wild type control RTV: E138A and Y188L; for change in susceptibility: mutations at codons 138 and 188.
Source text: as §1, §2
(§5) The E138A mutation alone and in combination with Y188L was introduced into resistance test vectors using the mega-primer method for site-directed mutagenesis (Sakar and Sommar, Ibid.). Resistance rest vectors containing the E138A mutation (E138A-RTV) or he E138 mutation along with the […] mutation (E138A-Y188L-RTV) were then tested using the phenotypic assay described earlier and the results were compared to those determined using a genetically defined resistance test vector that was wild type at positions 188 and 138. We determined the pattern of phenotypic susceptibility to the NNRTIs, delavirdine, nevirapine and efavirenz, in the E138A-RTV, Y188L-RTV and E138-Y188L-RTV.

Test [6] deals with E138A-RTV. Conditions: E138A alone.
Source text: as §1, §2, §5

Test [7] deals with Y181C-F227L-RTV. Conditions: for change in susceptibility (fold, IC50) vs wild type control RTV: Y181C and F227L, below 1 = increased susceptibility; for change in susceptibility: mutations at 181 and 227.
Source text: as §1, §2
The mutations V106A, V189L, V181C an F227L were introduced alone and in combination into resistance test vectors using the mega-primer method for site-directed mutagenesis (Sakar and Sommar, Ibid.). Resistance test vectors containing the V106A mutation (V106A-RTV), the V189L mutation (V189L-RTV), the V181C mutation (V181C-RTV) and E227L mutation (F2271-RTV) and two mutations (V106A-Y181C-RTV) and (V106A-V189L-RTV) and (V106A-F227-RTV) and (V181C-F227-RTV) and three mutations, (V106A-Y181C-F227L-RTV) were then tested using the phenotypic assay described earlier and the results were compared to those determined using a genetically defined resistance test vector that was wild type at positions 106, 189, 181 and 227. We determined the pattern of phenotypic susceptibility to the NNRTIs, delavirdine, nevirapine and efavirenz, in all nine vectors.

In test [8] the test system is Y181I-RTV. Conditions: for loss of susceptibility (fold, IC50) vs wild type control RTV: Y181I alone; for change in susceptibility: mutation at codon 181 (isoleucine).
Source text: as §1, §2
The Y181I mutationwas introduced into the resistance test vector using the mega-primer method for site-directed mutagenesis (Sakar and Sommar, Ibid). A resistance test vector containing the Y181I mutation (Y181I-RTV) was then tested using the phenotypic assay described earlier and the results were compared to those determined using a genetically defined resistance test vector that was wild type at position 181. We determined the pattern of phenotypic susceptibility to the NNRTIs, delavirdine, nevirapine and efavirenz, in the Y181I-RTV.

Consider `CC(C)Nc1cccnc1N1CCN(C(=O)c2cc3cc(NS(C)(=O)=O)ccc3[nH]2)CC1` [delavirdine], for which the “change in susceptibility (fold, IC50) vs wild type control RTV” value (from here on “change in susceptibility (fold, IC50)”) in test [1] was 1.4 fold; in test [6], 1.6 fold; in test [7] it was 0.89 fold. Moreover, the “change in susceptibility” value in test [1] is reported as “no change”; in test [3] it was “less susceptible; also recorded: significant reduction; also recorded: decreased susceptibility; also recorded: decrease”; in test [4], “more susceptible; also recorded: increase; also recorded: decreases the amount of delavirdine resistance”; in test [5], “moderate decrease”; in test [7], “increase”; in test [8] it was “moderate decrease”. In addition, the entries for the “loss of susceptibility (fold, IC50) vs wild type control RTV” value (“loss of susceptibility (fold, IC50)” below) in test [2], in test [5] and in test [8] were 5 fold, 75 fold and 20 fold, respectively.

As for `O=C1Nc2ccc(Cl)cc2[C@@](C#CC2CC2)(C(F)(F)F)O1` [efavirenz], the “change in susceptibility (fold, IC50)” value in test [1] is “greater than 250 fold”; in test [6], 1.4 fold; in test [7] it was 0.99 fold. For the same molecule, the “change in susceptibility” value in test [1] is “substantial decrease”; in test [3], “no effect”; in test [4], “little or no change”; in test [5], “moderate decrese; also recorded: moderate decrease”; in test [7], “increase”; in test [8], “no change”. The entries for the “loss of susceptibility (fold, IC50)” value in test [2], in test [5] and in test [8] were 5 fold, 88 fold and 1.4 fold, respectively.

Turning to `Cc1ccnc2c1NC(=O)c1cccnc1N2C1CC1` [nevirapine], the “change in susceptibility (fold, IC50)” value in test [1] is “greater than 800 fold”; in test [6] it was 1.3 fold; in test [7], 285 fold. The “change in susceptibility” value in test [1] was “substantial decrease”; in test [3] it was “no significant change; also recorded: little or no change; also recorded: little or no reduction; also recorded: no reduction”; in test [4], “did not significantly change; also recorded: little or no change; also recorded: does not decrease; also recorded: no effect”; in test [5] it was “substantial decrease”; in test [7], “significant decrease”; in test [8], “significant decrease”. Besides, the “loss of susceptibility (fold, IC50)” value in test [2] is 12 fold; in test [5], “greater than 800 fold”; in test [8], 740 fold.
